Measurements reported in US20070059311A1, “Regulation of the hedgehog signaling pathway and uses thereof” (priority 2005, published 2007).

What was measured:
[1] = test system: Huh7-2-3(+) cells; assay: real-time PCR of Gli1 in HCV replicating cells after interferon; format: cell-based; settings: Huh7-2-3(+) cells treated with interferon (giving Huh7-2-3(−) cells)
Excerpt: The activation of hedgehog signaling pathway in hepatocellular carcinoma infected with virus or bacteria was also examined. Huh7 cells are hepatocellular carcinoma cells that can support HCV replication (Scholle F. et al., 2004. Huh7-2-3(+) are Huh7 cells that allow active HCV replication and Huh7-2-3(−) cells are derived from Huh7-2-3(+) cells following interferon treatment for two weeks to prevent virus replication. SIIA are gastric cancer cells with hedgehog signaling activation and used as control.

[2] = test system: Shh promoter; assay: sonic hedgehog promoter activity (luciferase reporter) in HCV expressing cells; format: cell-based; settings: Huh7 cells with stable expression of HCV; HCV RNA replication inhibited by interferon treatment
Excerpt: Furthermore, the present invention also examined whether HCV RNA replication was a major trigger for activated hedgehog signaling in Hepatocellular carcinoma. In order to do so, cell lines with or without HCV RNA replication for the sonic hedgehog (shh) promoter activity were compared. The promoter activity of SHH was higher in Huh7 cells than in HepG2 cells. […] However, the shh promoter activity was reduced when the HCV RNA replication was inhibited by interferon treatment as shown in 2-3c (FIG. 7B).

[3] = test system: Huh7 cells; assay: MTT cell growth assay; format: cell-based; settings: tomatidine, negative control
Procedure: (§1) HCC cell cell lines (Hep3B, HepG2, HCC36, PLC/PRF/5 (identified as PLC) and Huh 7) were provided by Chiaho Shih, Tien Ko and Kui Li at UTMB. All cells were cultured in Dulbeco-modified essential medium (DMEM) with 10% FBS and antibiotics. […] In addition, the specific inhibition of hedgehog signaling in HCC cells was achieved by addition of Shh neutralizing antibodies (1 μg/ml in 0.5% FBS DMEM, Car# SC-9024, Santa Cruz Biotechnology, Santa Cruz, Calif.). […] Transient transfection of Gli1 in HCC cells was performed using LipofectAmine according to the manufacturer's recommendation (Plasmid-LipofectAmine=1:2.5). Cells with ectopic expression of Gli1 were subjected to drug treatment and to TUNEL (terminal deoxynucleotidyl transferase-mediated dUTP nick end labeling) assay.
(§2) For cell viability analysis, two methods were used: trypan Blue analysis and MTT assay. Trypan Blue analysis was performed to manufacturer's instruction (Invitrogen, CA). The percentage of trypan blue positive cell (dead cells) were calculated under a microscope and triplicates of samples for each treatment were used in a 96-well format. Twenty microliters of MTT (10 mg/ml in PBS) was added to each well (containing 100 μl cultured medium, 0.5% FBS DMEM). […] Thirty minutes later, absorbance was measured at 570 nm using a microplate reader from Molecular Devices Co., Sunnyvale, Calif. […]

[4] = test system: Hep2G cells; assay: TUNNEL (TUNEL) apoptosis assay; format: cell-based; settings: 2 μM
Procedure: (§3) TUNEL assay was performed using a kit from Roche Biochemicals according to published procedure (Athar et al., 2004). Briefly, cells were fixed with 4% paraformaldehyde at room temperature for 1 h and permeated with 0.1% Triton X-100, 0.1% sodium citrate (freshly prepared) on ice for 2 min. After washing with PBS, each sample was incubated with 50 μl of TUNEL reaction mixture at 37° C. for 30 min. TUNEL labeled solution (without enzyme) was used as a negative control. TUNEL positive cells were counted under a fluorescent microscope. The counting was repeated three times and the percentage from each counting was calculated.

[5] = test system: Hep3B cells; assay: TUNNEL (TUNEL) apoptosis assay; format: cell-based; settings: 2 μM
Procedure: as §3

[6] = test system: Hep3B cells; assay: real-time PCR of hedgehog target genes Gli1 and PTCH1 after drug treatment; format: cell-based; settings: 2 μM
Procedure: as §1

[7] = test system: Huh7 cells; assay: BrdU incorporation; format: cell-based
[8] = test system: liver cancer cells with activated hedgehog signaling pathway; assay: induction of apoptosis in liver cancer cells; format: cell-based; settings: 2 μM KAAD-cyclopamine
Procedure: as §3

[9] = test system: Huh 7 cells that transiently expressed Gli1; assay: TUNEL assay in cells with ectopic expression of Gli1; format: cell-based; settings: Huh 7 cells transiently expressing Gli1 under CMV promoter
Procedure: as §3

[10] = test system: Hep3B cells; assay: Trypan blue cell death assay; format: cell-based; settings: KAAD-cyclopamine 2 μM
Procedure: as §1, §2

[11] = test system: GI cancer cells; settings: GI cancer cells (Ma et al., 2006); cited from earlier work
[12] = test system: cells regardless of hedgehog signaling; assay: toxicity of KAAD-cyclopamine to cells regardless of hedgehog signaling; format: cell-based; settings: 5 or 10 μM

Row | Molecule | expression of Gli1 [1] | shh promoter activity [2] | cell growth (MTT assay) [3] | apoptosis (TUNNEL assay) [4] | apoptosis (TUNNEL assay) [5] | levels of Gli1 and PTCH1 transcripts [6] | BrdU incorporation [7] | time within which apoptosis is induced [8] | TUNEL / sensitivity to treatment [9] | level of cell death (Trypan blue) [10] | concentration that could cause non-specific toxicity [11] | toxicity to cells [12]
1 | interferon | reduced | reduced |  |  |  |  |  |  |  |  |  | 
2 | C[C@H]1CC[C@]2(NC1)O[C@H]1C[C@H]3[C@@H]4CC[C@H]5C[C@@H](O)CC[C@]5(C)[C@H]4CC[C@]3(C)[C@H]1[C@@H]2C [tomatidine] |  |  | did not affect cell growth | did not induce apoptosis | did not induce apoptosis | little discemible effect |  |  |  |  |  | 
3 | KAAD-cyclopamine |  |  |  | no detectable apoptosis | apoptosis |  | reduced | ≤ 12 h | negative for TUNEL | increased level of cell death | 10 µM | quite toxic
